The results in this text go back to patent publication US5385891A, “Polysulfate of β-cyclodextrin derivative and process for preparing the same” (Tanabe Seiyaku Co., Ltd., priority 1991, dated 1995).

Counter-ions that a name gives are not always drawn.

For the experiment, the system named is HIV in MT-4 cells. Put plainly: HIV Proliferation Inhibitory Activity (MT-4 cells, 10% FCS). The conditions noted are these: Human immunodeficiency virus 1, MT4, 120 h, read-out: HIV proliferation inhibitory activity, 100% inhibition concentration. The format is cell-based, HIV (a culture supernatant of TALL-1/LAV-1). How it is done: It is known that when MT-4 cells which are sustaining infectious cell lines of human T-cell Leukemia virus I type (HTLV-I) are infected with HIV, HIV proliferates rapidly and the MT-4 cells are killed in 5 to 6 days due to the cellular damage. Therefore, HIV proliferation inhibitory activity of a sample can be evaluated by examining the number of viable cells of the MT-4 cells infected with HIV.
MT-4 cells were infected with HIV (a culture supernatant of TALL-1/LAV-1) at 37° C. for one hour so that TCID50 (median tissue culture infectious dose)/cell might be 0.001, followed by washing with the medium. The infected MT-4 cells were then suspended at a concentration of 1×10^5 cell/ml in RPMI-1640 media (containing 10% of FCS (fetal calf serum)) containing samples of various concentrations, respectively. Each of the thus obtained cell suspension was introduced in a flat bottom culture plate in an amount of 200 μl/well and was incubated at 37° C. in the presence of 5% carbon dioxide for 5 days. After incubation, the number of viable cells in the cell suspension was counted by the Tripan-Blue Staining Method. The HIV proliferation inhibitory activity of a sample was evaluated in terms of the concentration of the sample which suppresses by 100% the infectiousness and the cell modification activity of HIV in MT-4 cells.

As for `O=S(=O)(O)OC[C@H]1O[C@@H]2O[C@H]3[C@H](OS(=O)(=O)O)[C@@H](OCc4ccc(F)cc4)[C@@H](O[C@H]4[C@H](OS(=O)(=O)O)[C@@H](OCc5ccc(F)cc5)[C@@H](O[C@H]5[C@H](OS(=O)(=O)O)[C@@H](OCc6ccc(F)cc6)[C@@H](O[C@H]6[C@H](OS(=O)(=O)O)[C@@H](OCc7ccc(F)cc7)[C@@H](O[C@H]7[C@H](OS(=O)(=O)O)[C@@H](OCc8ccc(F)cc8)[C@@H](O[C@H]8[C@H](OS(=O)(=O)O)[C@@H](OCc9ccc(F)cc9)[C@@H](O[C@H]1[C@H](OS(=O)(=O)O)[C@H]2OCc1ccc(F)cc1)O[C@@H]8COS(=O)(=O)O)O[C@@H]7COS(=O)(=O)O)O[C@@H]6COS(=O)(=O)O)O[C@@H]5COS(=O)(=O)O)O[C@@H]4COS(=O)(=O)O)O[C@@H]3COS(=O)(=O)O` [Example 6], the IC100 stood at 3.9 µg/mL. For `O=S(=O)(O)OC[C@H]1O[C@@H]2O[C@H]3[C@H](OS(=O)(=O)O)[C@@H](OCc4ccccc4)[C@@H](O[C@H]4[C@H](OS(=O)(=O)O)[C@@H](OCc5ccccc5)[C@@H](O[C@H]5[C@H](OS(=O)(=O)O)[C@@H](OCc6ccccc6)[C@@H](O[C@H]6[C@H](OS(=O)(=O)O)[C@@H](OCc7ccccc7)[C@@H](O[C@H]7[C@H](OS(=O)(=O)O)[C@@H](OCc8ccccc8)[C@@H](O[C@H]8[C@H](OS(=O)(=O)O)[C@@H](OCc9ccccc9)[C@@H](O[C@H]1[C@H](OS(=O)(=O)O)[C@H]2OCc1ccccc1)O[C@@H]8COS(=O)(=O)O)O[C@@H]7COS(=O)(=O)O)O[C@@H]6COS(=O)(=O)O)O[C@@H]5COS(=O)(=O)O)O[C@@H]4COS(=O)(=O)O)O[C@@H]3COS(=O)(=O)O` [Example 1, sodium salt of heptakis(2-O-benzyl)-β-cyclodextrin polysulfate], the IC100 turned out to be 0.98 µg/mL.
